# Measured values published in publication PMC3199744, “Preformulation and stability in biological fluids of the retrocyclin RC-101, a potential anti-HIV topical microbicide” (AIDS Research and Therapy, 2011).
# What was measured:
# [1] = Stability in HVF positive for bacterial vaginosis (HVF BV+), detection by LC-MS/MS; details: for detection of RC-101 by LC-MS/MS: nanoLC-SRM MS, qualitative
# Method: After removing the Instead Softcup®, a speculum examination was performed. Swab specimens of the endocervix were obtained using the Mini-tip Culturette TN collection system (Becton Dickinson, Sparks, MD) according to the manufacturer's guidelines. C. trachomatis and N. gonorrhoeae were detected with an amplified DNA assay based on the simultaneous amplification and detection of target DNA amplification primers and a fluorescent label detector probe. Bacterial vaginosis was detected by Gram stain and assessed by the Nugent score, where score results between 0 and 3 indicate a normal flora, between 4 and 6 indicates an intermediate state, and between 7 and 10 indicates bacterial vaginosis.
# The HVF from the Instead Softcup® was removed by centrifugation of the conical tube for 10 min at 5,000 rpm. […] HVF was then removed from the cup and the pH of each HVF sample was measured with Fisher Alkacid pH filter strips (Fisher Scientific). All samples collected on a specific day were pooled to be used for the research studies. If the pH of the individual samples was higher than 5, the sample was not included in the pool but it was stored at -80°C for separate analysis. If the sample contained blood, it was immediately discarded. Samples were prepared as described in Table 1. […] Because of its high viscosity, HVF was measured by weight and not by volume. All solutions were prepared fresh and incubated with HVF (or water) at 37°C for specific periods of time (0, 2, 6, 12, 24, 48, and 72 h), unless specified otherwise. At each time point, the samples were centrifuged at 10,000 rpm for 10 min to separate the supernatant from the epithelial cells as described in the cell processing section. Both parts (supernatant and cells) were stored at -80 ± C until analyzed by LC-MS/MS. To evaluate the influence of freezing the fluid prior to the analysis, the last pool of HVF was divided into two samples: one used fresh (at the time of collection), and the other one stored at -80°C for a 3-month period. After that time period, HVF was thawed and processed for blank and RC-101 solution only, as described in Table 1. HVF samples collected with a high pH value indicative of BV were stored at -80°C as previously mentioned. After confirmation of BV on those fluid samples by Gram stain score, the fluid samples (HVF BV^+) were thawed, pooled, and processed as described in Table 1.
# At each time point, the sample was removed from the incubation chamber and centrifuged for 10 min at 10,000 rpm, at 4 ± C to separate the supernatant from cell pellet. Supernatant (100 μL) was added to microcentrifuge filters Ultracel YM-10 Microcon MWCO 10,000 (Millipore Corporation, Bedford, MA), which were pre-washed with Milli Q water to eliminate any trace of propylene glycol from the filters. Samples were centrifuged twice for 15 min at 8,500 rpm, at 4 ± C. The filtrate was collected and frozen at -80 ± C until further analysis. A solution of 3 M urea was added to the cell pellet (1:1 w/w) obtained from the first centrifugation, to lyse the cells. This mixture was vortexed three times for 30 sec, and then centrifuged for 10 min at 10,000 rpm, at 4 ± C. The supernatant obtained from the cell lysate was then added to microcentrifuge filters Ultracel YM-10 Microcon MWCO 10,000 pre-washed with Milli Q water. Samples were centrifuged twice for 15 min at 8,500 rpm, at 4 ± C. The filtrate was collected and frozen at -80 ± C until analysis. […] Samples were thawed and added to PepCleanTM C-18 spin columns (Pierce Biotechnology Inc., Rockford, IL) for desalting, after column conditioning with acetonitrile:water (50:50) and equilibration with 0.1% trifluoroacetic acid. The column was washed three times with 0.1% trifluoroacetic acid, and RC-101 was eluted with acetonitrile:water (60:40) in 0.1% trifluoroacetic acid.
# [2] = UV spectroscopy for aggregation / ionic strength effect; assay type: physicochemical
# Method: (§1) Changes in the secondary structure of the protein were monitored by Circular dichroism (CD) on an AVIV Circular Dichroism spectrophotometer model 202 (AVIV Biomedical, Lakewood, NJ) equipped with a 0.1 cm path length quartz cell. RC-101 stability was also monitored by using a matrix-assisted laser desorption ionization-time of flight (MALDI-TOF) mass spectrometric (MS) on a Voyager DE-PRO mass spectrometer (Applied Biosystems, Foster City, CA). Potential for aggregation was evaluated by UV-spectroscopy using a NanoDrop ND-1000 spectrophotometer (NanoDrop Technologies Inc, Wilmington, DE).
# [3] = Circular dichroism of RC-101 at different pH; assay type: physicochemical; details: 500 μg/mL in buffer, pH 7 and pH 12 versus pH 3, 0.1 cm cell
# Method: as §1
# [4] = Effect of pH on stability of RC-101, HPLC; assay type: physicochemical; details: 500 μg/mL, HPLC-UV
# Method: For all pre-formulation studies described below, triplicate solutions of RC-101 (500 μg/mL) were prepared in either water or aqueous buffer solution. Thermal degradation studies were conducted at 25, 37, and 65°C for a minimum period of 1 week. The effect of pH on the stability of RC-101 was evaluated over the pH range from 3 to 12 using 10 mM phosphate buffer solutions, at low (50 mmol/kg) and high (500 mmol/kg) ionic strength. Oxidation of RC-101 was evaluated by exposing a solution of RC-101 to hydrogen peroxide (H2O2) at concentrations of 3.0, 0.08, and 0.002% (v/v). The high H2O2 concentration (3.0%) was selected as a forced degradation concentration. […] Protection against oxidation was investigated by the addition of antioxidants commonly used in pharmaceutical products. The antioxidants used in this study were: methionine (95.2 μg/mL or 250 μg/mL), cysteine (95.2 μg/mL), glutathione (90.9 μg/mL), vitamin E TPGS (90.9 μg/mL), ascorbic acid (1.0 mg/mL), sodium ascorbate (1.0 mg/mL), and EDTA (1.0 μg/mL).
# RC-101 concentration after exposure to preformulation conditions was analyzed by HPLC as previously described [11]. Briefly, the HPLC system (Waters Corporation, Milford, MA) was equipped with an autoinjector model 717, a quaternary pump model 600, and an ultraviolet (UV) detector model 2487 set up at 215 nm. Separation of RC-101 from degradant products was achieved using a Phenomenex Jupiter 5 μC5 300 Å (4.6 × 250 mm) column (Phenomenex, Torrance, CA) protected by a Widepore C5 (4 × 3.0 mm) guard cartridge (Phenomenex). The gradient consisted of mobile phase A (0.1% TFA in water (v/v)), and mobile phase B (0.07% TFA in acetonitrile (v/v)) pumped at a flow rate of 1.0 mL/min. Forced degraded samples (oxidation, temperature, and basic and acidic hydrolysis) were used to establish that the method could separate the degradants from the main peak.
# HPLC data obtained from the preformulation studies were expressed as the average percentage of the peak area from time 0 ± standard deviation, n = 3. Results were analyzed by one-way analysis of variance (ANOVA) with multiple comparisons of individual time points by using post hoc Bonferroni correction to detect significant differences under different conditions. P-values ≤ 0.05 were considered to be statistically significant, unless specified otherwise.
sequence,measurement,setting,value
"GICRCICGKGICRCICGR (bicyclic or more) [RC-101, cationic retrocyclin analog; circular 18-residue tetracyclic peptide with three cysteine disulfide bonds]",detection of RC-101 by LC-MS/MS,"[1]; HVF BV+ pool 1:1, 37°C, 2 h",-
same,detection of RC-101 by LC-MS/MS,"[1]; HVF BV+ pool 1:1, 37°C, 6 h",-
same,detection of RC-101 by LC-MS/MS,"[1]; HVF BV+ pool 1:1, 37°C, 12 h",-
same,detection of RC-101 by LC-MS/MS,"[1]; HVF BV+ pool 1:1, 37°C, 24 h",-
same,detection of RC-101 by LC-MS/MS,"[1]; HVF BV+ pool 1:1, 37°C, 48 h",-
same,detection of RC-101 by LC-MS/MS,"[1]; HVF BV+ pool (pH 5.8 ± 0.6, stored -80°C) 1:1, 37°C, 0 h",-
same,detection of RC-101 in HVF BV+,"[1]; HVF BV+ pool (stored -80°C), any time point studied, supernatant or cells, 37°C, LC-MS/MS",undetectable
same,aggregation (increase in UV absorbance 300 to 600 nm),"[2]; 500 μg/mL, phosphate buffer pH 12, UV scan (data not shown)",presence of aggregates
same,stability profile with high ionic strength buffers,"[2]; UV spectroscopy, pH 4 and 7, high ionic strength (500 mmol/kg) phosphate buffers",did not show any significant differences
same,CD spectrum: peak shift and loss of absorbance compared to pH 3,[3],change in folding
same,change in RC-101 concentration over time (HPLC),"[4]; pH 3, 10 mM phosphate buffer, 10 days, n = 3, p > 0.83",no statistically significant decrease
same,change in RC-101 concentration over time (HPLC),"[4]; pH 4, 10 mM phosphate buffer, 10 days, n = 3, p > 0.83",no statistically significant decrease
same,change in RC-101 concentration over time (HPLC),"[4]; pH 7, 10 mM phosphate buffer, 10 days, n = 3, p > 0.83",no statistically significant decrease
same,change in RC-101 concentration over time (HPLC),"[4]; pH 12, 10 mM phosphate buffer, first 2 h, n = 3",significant decrease
